Values joined by “and” are separate entries in the source; they are usually repeats but may differ in a detail not shown here. Equal values may be shown once.
Columns and labels:
[1] = biological target: EGFR exon 20 insertion (D770_N771insNPG) enzyme (Homo sapiens, UniProt P00533, INS770NPG); assay: Kinase assay (HTRF KinEASE TK), EGFR exon 20 insertion; assay type: biochemical
Description: To detect the inhibitory effect of compounds on EGFR WT, EGFR (D770_N771insNPG), ERBB2 (V777_G778ins>CG), EGFR T790M/L858R enzyme activities
EGFR WT (Invitrogen, Cat. No. PR7295B), EGFR [L858R] (Invitrogen, Cat. No. PR7447A), EGFR [d746-750] (Invitrogen, Cat. No. PV6179), ATP (Sigma, Cat. No. A7699-1G), DMSO (Sigma, Cat. No. D2650), DTT (Sigma, Cat. No. 43815), 384-well plate, compound dilution plate (Greiner, Cat. No. 781280), 384-well plate, test plate (Perkin Elmer, Cat. No. 6007299), HTRF KinEASE TK Kit (Cisbio, Cat. No. 62TK0PEB), magnesium chloride (Sigma, Cat. No. M1028), Orthovanadate (Sigma, Cat. No. 56508), BSA (Sigma, Cat. No. A7030), HEPES (Life technology, Cat. No. 11344-041).
The final test concentrations of the test compounds ranged from 10 μM to 0.17 nM in 3-fold gradient dilutions at 11 concentrations.
The preparation of the buffer, 50 mM HEPES (pH 7.5), 0.01% BSA, 5 mM MgCl2, and 0.1 mM Orthovanadate were contained in the buffer. After the preparation of the buffer, the enzyme and substrate were mixed with pre-diluted prepared compounds of different concentrations, and the mixture was placed at room temperature for 15 minutes. […] After the reaction was completed, the antibody was added to the assay, incubated at room temperature for 60 minutes and then detected by Envision (plate reading instrument), and data were collected. […]

[2] = Compound stability test in plasma (dog); assay type: in vitro ADME, Beagle
Experimental: (§1) In this study, mouse, SD rat, Beagle, cynomolgus monkey and human plasma were used as materials to investigate the stability of the tested compounds in the plasma of the above five species. Propantheline, Enalapril, Bisacodyl and Procaine were used as control compounds.
(§2) The experimental conditions for the test compounds were as follows: • test concentration: 2 μM (DMSO ≤0.5%); • incubation times: 0, 10, 30, 60 and 120 minutes; • frozen plasma (from multiple species) was used in the test system; • incubation conditions: 37° C.
(§3) The mixed frozen plasma was thawed in a 37° C. water bath prior to the experiment. Plasma was centrifuged at 4000 rpm for 5 minutes and cleared if there was a clot. The pH will be adjusted to 7.4±0.1 if required.
(§4) The intermediate solution of 1 mM compound and positive control was prepared by diluting 10 mM stock solution with 90 μL of dimethyl sulfoxide. 100 μM solution was prepared by diluting 20 μL of intermediate solution (1 mM) with 180 μL of 45% methanol/water.
(§5) 2 μL of 100 μM solution was added to 98 μL of blank plasma to achieve a final concentration of 2 μM (in duplicate) of the sample, and the sample was incubated in a 37° C. water bath. At each time point (0, 10, 30, 60 and 120 min), 400 μL of termination solution (200 ng/mL toluenesulfonylurea and 200 ng/mL labetalol, 50% ACN/MeOH) was added to precipitate the proteins and mixed thoroughly. […]

[3] = Compound stability test in plasma (human); assay type: in vitro ADME
Experimental: as §1, §2, §3, §4, §5

[4] = Compound stability test in plasma (rat); assay type: in vitro ADME, SD rat
Experimental: as §1, §2, §3, §4, §5

[5] = system: H1975 (L858R/T790M) cells; assay: Anti-proliferation activity test against H1975 cells; assay type: cell-based; details: Homo sapiens, NCI-H1975, Cell-Titer Glo, 72 hours
Experimental: (2) Anti-Proliferation Activity Test of the Compound Against H1975 Cells and IC50 Test of Anti-Proliferation Activity Against A431 Cells
RPMI1640 medium, FBS fetal bovine serum, trypsin-EDTA, were all purchased from Giboco. DPBS was purchased from Corning, penicillin/streptomycin solution was purchased from Hyclone, and Cell-Titer Glo reagent was purchased from Promega (1kit, Cat. No. G7571). Plate reading instrument: Envision (PerkinElmer).
384-well plates in columns 1, 2, and 24 were added with 45 μL of medium, and the cell suspension was dispensed with Multi-drop at 45 μL per well (1000 cells) and incubated overnight in an incubator. The compound was added to the source plate according to the Echo dispensing requirements, the compound in the source plate was added to the inter plate and diluted to an intermediate concentration, then the compound in the source plate and the inter plate was added to the cell plate, and the cells were continued to be incubated in a incubator for 72 hours. After 72 hours, Cell-Titer Glo reagent and cells were removed and equilibrated at room temperature for 30 min. 25 μL of Cell-Titer Glo reagent was dispensed into 384-well plates with Multi-drop, the cell plate was vibrated at medium speed for 3 min, centrifuged at 1000 rpm for 2 min, and stood for 10 min. The plate was read by Envision (Luminescence). […]

Chain of EGFR exon 20 insertion (D770_N771insNPG) enzyme (P00533 with tags, fused parts or gaps INS770NPG limits assumed): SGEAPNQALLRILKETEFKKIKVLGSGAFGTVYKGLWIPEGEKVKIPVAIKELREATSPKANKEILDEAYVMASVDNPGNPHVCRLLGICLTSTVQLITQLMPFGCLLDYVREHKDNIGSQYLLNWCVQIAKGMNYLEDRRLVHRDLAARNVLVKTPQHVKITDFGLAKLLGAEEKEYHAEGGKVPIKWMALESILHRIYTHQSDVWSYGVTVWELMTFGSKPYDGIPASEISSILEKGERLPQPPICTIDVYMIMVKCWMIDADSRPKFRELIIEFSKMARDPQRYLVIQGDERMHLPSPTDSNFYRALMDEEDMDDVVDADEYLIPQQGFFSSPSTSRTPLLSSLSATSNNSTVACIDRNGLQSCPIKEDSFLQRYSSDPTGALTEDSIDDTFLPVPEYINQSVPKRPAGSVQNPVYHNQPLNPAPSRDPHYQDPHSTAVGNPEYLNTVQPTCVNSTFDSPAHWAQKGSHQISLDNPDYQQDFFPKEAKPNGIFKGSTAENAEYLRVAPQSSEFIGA

For `C=CC(=O)Nc1cc(Nc2ncc(C(=O)OC(C)C)c(-c3cn(OC)c4ccccc34)n2)c(OC)cc1N(C)CCN(C)C.CS(=O)(=O)O` [Compound 1], the IC50 [1] was 0.8 nM and 0.7 nM, the “In vitro plasma stability (Residual percentage)” value ([2]; 120 minutes, 2 μM, 37° C.) was 101.7% and the half-life at 2 µM ([2]; beagle, pH 7.4, 37° C., read-out: In vitro plasma half-life T1/2) was over 4.82 h. For the same compound, the “In vitro plasma stability (Residual percentage)” value ([3]; 120 minutes, 2 μM, 37° C.) was 19%, the half-life at 2 µM ([3]; pH 7.4, 37° C., read-out: In vitro plasma half-life T1/2) was 0.86 h and the “In vitro plasma stability (Residual percentage)” value ([4]; 120 minutes, 2 μM, 37° C.) was 87.9%. The half-life at 2 µM ([4]; Sprague-Dawley (SD), pH 7.4, 37° C., read-out: In vitro plasma half-life T1/2) was over 4.82 h and the IC50 [5] was 15.3 nM.
